System: SARS-CoV-2-PP (614G, Delta, UK, Brazil variants) infecting ACE2 expression cells
Assay type: cell-based

CCCCCCCCCCCCCCCC(=O)O [palmitic acid]
difference of effect between variants: a difference between the Brazil variant and the other variants
effect on variants when combined with Oleic acid or Linoleic acid: strongest inhibition on the Delta variant
inhibition of SARS-CoV-2-PP infection: good inhibitor

CC1=CC(=O)C(C(C)C)=CC1=O [thymoquinone]
inhibition of SARS-CoV-2-PP infection: good inhibitor
